Peptide text beside a SMILES is read from it.
Structure (SMILES) | logP
CC(C)(Oc1ccccc1)C(=O)N[C@@H]1C(=O)N2[C@@H]1SC(C)(C)[C@@H]2C(=O)O | 2.76
NC(=O)C(Cl)(Cl)Cl | 1.04
CN(C)Cc1cccnc1 | 0.49
CCCCCCCC(=O)OCC(=O)C1(O)CCC2C3CCC4=CC(=O)CCC4(C)C3C(O)CC21C (stereo not given) | 5.49
CCOP(=S)(OCC)SCSc1ccc(Cl)cc1 | 5.33
CC1CC2C3CC(F)C4=CC(=O)C(Cl)=CC4(C)C3(F)C(O)CC2(C)C1(O)C(=O)CO (stereo not given) | 2.58
CS(=O)(=O)OCCCCOS(C)(=O)=O | -0.52
ClC1C=CC(Cl)C(Cl)C1Cl (stereo not given) | 3.08
Brc1cccnc1 | 1.6
CC(O)CNCC(C)O (stereo not given) | -0.82
CCCC(C)C1(CC)C(=O)N=C(S)NC1=O (stereo not given) | 2.85
O=[N+]([O-])c1ccc(OC2OC(CO)C(OC3OC(CO)C(O)C(O)C3O)C(O)C2O)cc1 (stereo not given) | -1.39
Cc1cccc(C2CNCCO2)c1 (stereo not given) | 1.52
OCCOc1ccccc1 | 1.16
CCc1cc(NC(C)=O)cc(CC)c1O | 1.87
CCOS(=O)(=O)c1ccc(C)cc1 | 1.81
CNC(=O)Oc1ccc(Cl)cc1 | 2.01
CCC1(c2ccccc2)C(=O)NC(=O)NC1=O | 1.47
CC(=O)Nc1c(I)c(C(=O)N[C@H]2C(O)O[C@H](CO)[C@@H](O)[C@@H]2O)c(I)c(N(C)C(C)=O)c1I (stereo not given in full) | -1.89
c1ccc(Cc2ccncc2)cc1 | 2.62
O=C(O)C1CCCCC1 | 1.96
c1ccc(SSc2ccccc2)cc1 | 4.41
CN(C)C(N(C)C)=S(I)c1ccc(Cl)c(Cl)c1Cl (stereo not given) | 0.95

Structure (SMILES) | logP
NC(=O)c1cccc2[nH]ccc12 | 0.66
Cn1cnc([N+](=O)[O-])c1Sc1ncnc2nc[nH]c12 | 0.1
O=C(O)Cc1ccc(O)cc1 | 0.75
OC(c1ccccc1)C1CCCCN1 (stereo not given) | 1.58
CC(C)C(C)O (stereo not given) | 1.28
CCC(OC(C)=O)C(CC(C)N(C)C)(c1ccccc1)c1ccccc1 (stereo not given) | 4.27
CC(=O)c1ccc(F)cc1 | 1.72
COc1ccc(N)cc1 | 0.95
COc1ccc2c(c1)C13CCN4CC5=CCOC6CC(=O)N2C1C6C5CC43 (stereo not given) | 1.85
CCCCNC(=O)Cn1cnc([N+](=O)[O-])n1 | 0.89
Cc1ccc(C)cc1 | 3.15
O=[N+]([O-])c1cccc(F)c1 | 1.9
COc1ccc2cccnc2c1 | 2.37
COC(=O)c1ccco1 | 1
O=C(O)C(Cc1ccccc1)n1cccc1 (stereo not given) | 2.34
Cc1ccc(NC2=NCCN2)c(Cl)c1 | 1.8
Clc1ccc(Cl)c(-c2c(Cl)ccc(Cl)c2Cl)c1 | 6.55
COC1=CC(=O)c2ccccc2C1=O | 1.35
c1ccc2[se]ccc2c1 | 3.19
Cn1cccc1C=NNC(=S)Nc1ccccc1 | 3.64
OCCN1CCN(CCC=C2c3ccccc3Sc3ccc(C(F)(F)F)cc32)CC1 | 4.51
OCCO | -1.36
NC(=O)Nc1ccc(Cl)cc1 | 1.8

Structure (SMILES) | logP
CC(=O)Oc1ccccc1C(=O)O | 1.19
OCCc1ccncc1 | 0.1
CNc1ccccc1C | 2.16
CCCCCCCCOc1cccc(NC(=O)OCCN2CCCCC2)c1 | 5.82
ClC1=C(Cl)C(Cl)(Cl)C(Cl)=C1Cl | 5.04
Nc1ccc([N+](=O)[O-])cc1N | 0.88
CC(C)CN(N=O)C(N)=O | 1.04
COCC(c1c(O)c2ccccc2oc1=O)c1c(O)c2ccccc2oc1=O | 1.38
COc1ccccc1C(C)=O | 1.82
CC(=O)C(C)C | 0.84
CS(=O)(=O)Oc1ccccc1 | 1.25
C=CCC1(CC)C(=O)NC(=O)N(C)C1=O (stereo not given) | 1.35
COC(=O)c1ccc(OC)cc1 | 2.27
Brc1ccc(-c2cc3ccccn3c2)cc1 | 5.43
O=C(O)CNc1ccccc1 | 0.62
CCc1ccccc1OCC(=O)O | 2.53
CC(C)N(C)/N=N/c1ccc(C(N)=O)cc1 | 2.02
CCCSCS(=O)CC(CO)NC(=O)C=Cc1c(C)[nH]c(=O)[nH]c1=O (stereo not given) | -0.67
C[C@]1(O)CC[C@H]2[C@@H]3CCC4=CC(=O)CC[C@@H]4[C@H]3CC[C@@]21C | 2.99
CN(C1CCCCC1)C1CCCCC1 | 3.71
Nc1ccccn1 | 0.48
Oc1cc(Cl)cc(Cl)c1 | 3.62
CCC=O | 0.59

Structure (SMILES) | logP
CCOP(=S)(Oc1ccc(C#N)cc1)c1ccccc1 (stereo not given) | 4.29
CCCCC(=O)OCC(=O)[C@@]1(OC(=O)CCCC)[C@@H](C)C[C@H]2[C@@H]3CCC4=CC(=O)C=C[C@]4(C)[C@@]3(F)[C@@H](O)C[C@@]21C | 5.26
CCN(CC)CCCN(c1ccccc1)C1Cc2ccccc2C1 | 4.86
COc1ccc(Cl)cc1 | 2.78
O=C(O)COc1ccccc1O | 0.85
CC(=O)NCC(=O)N[C@@H](CC(C)C)C(N)=O | -0.78
N#C/C=C/C#N | -0.25
CC(=O)OCC(=O)[C@@]1(O)CC[C@H]2[C@@H]3CCC4=CC(=O)C=C[C@]4(C)[C@H]3[C@@H](O)C[C@@]21C | 2.4
O=C(O)COc1ccc(F)cc1 | 1.64
CN(C)C(N(C)C)=S(I)c1cccc(Cl)c1Cl (stereo not given) | 0.29
CCN(N=O)C(N)=O | 0.23
CCCCCCCc1nn[nH]n1 | 2.01
O=Cc1ccccn1 | 0.44
O=C1C=CC(=O)C=C1 | 0.2
CN1CC(=O)NC1=N | -1.76
COc1ccccc1N | 1.18
CC(=O)N[C@@H](C)C(=O)NCC(=O)N[C@@H](Cc1ccccc1)C(N)=O (Ac-Ala-Gly-Phe-NH2) | -0.71
COCC(=O)Nc1c(I)c(C(=O)NCC(O)CO)c(I)c(C(=O)N(C)CC(O)CO)c1I (stereo not given) | -2.05
CN(C)C(=O)c1cccnc1 | -0.48
CCc1ccc(OC(C)=O)cc1 | 2.56
COC(=O)c1cc(Cl)ccc1N | 3.3
CCOP(=O)(OCC)SCSCC | 2.07
CCN(CC)C(=O)c1ccccc1 | 1.25

Structure (SMILES) | logP
Cc1ccnc2c(O)ccc(O)c12 | 1.59
CCCCC(CC)COC(=O)n1cnc(CC(NC(=O)C2CCC(=O)N2)C(=O)N2CCCC2C(N)=O)c1 (stereo not given) | 1.82
O=[N+]([O-])c1cc[n+]([O-])c2ccccc12 | 1.09
ClCc1cccc(CCl)c1 | 2.72
CC(=O)OCC(COC(C)=O)OC(C)=O | 0.25
CN(C)C(=O)Nc1ccc(C2CCCCC2)cc1 | 3.83
C(=Cc1ccccn1)c1ccccn1 | 2.11
ClC(Cl)=Nc1ccccc1 | 2.54
Nc1nc(C=Cc2ccc([N+](=O)[O-])o2)no1 | 1.3
COC(=O)c1ccccc1Cl | 2.38
O=S(Cc1ccccc1)Cc1ccccc1 | 1.99
CS(=O)(=O)c1ccc(Cl)cc1 | 1.06
Nc1ccc(S(=O)(=O)Nc2ccc(Cl)cc2)cc1 | 2.71
NC(CO)C(=O)O (stereo not given) | -3.07
O=C(Nc1ccc([N+](=O)[O-])cc1)c1cccnc1 | 1.82
O=C1C2(Cl)C3(Cl)C4(Cl)C(Cl)(Cl)C5(Cl)C3(Cl)C1(Cl)C5(Cl)C24Cl (stereo not given) | 5.41
COC(=O)CC(C)C | 1.82
CCOc1cn[nH]c1 | 0.8
NC(=O)C1(N2CCCCC2)CCN(CCCC(=O)c2ccc(F)cc2)CC1 | 2.02
CNC(=O)c1ccccc1 | 0.86
O=Cc1cccnc1 | 0.29
ICCI | 2.71
Nc1ncnc2nn[nH]c12 | -0.96

Structure (SMILES) | logP
Cc1c2ccccc2c(C)c2c1ccc1ccccc12 | 5.8
CNc1nc(-c2ccccc2)c2ccccc2n1 | 3.58
NNC(=O)c1cccc(Br)c1 | 1.26
COc1cc(S(C)=O)ccc1-c1nc2cnncc2[nH]1 (stereo not given) | 0.39
CCCNC(C)CC (stereo not given) | 1.91
N#CCCOc1ccccc1 | 1.61
CNC(=S)N(C)C | 0.1
Cc1c(Cl)cccc1Nc1ccccc1CC(=O)O | 4.64
CC(=O)NC(Cc1c[nH]c2ccccc12)C(=O)NCC(=O)NC(Cc1ccccc1)C(N)=O (stereo not drawn) (Ac-Trp-Gly-Phe-NH2; configuration not given here) | 0.99
NC(=S)N1CCCCC1 | 0.73
CCOC(=O)C(C(=O)OCC)=C(C(=O)OCC)C(=O)OCC | 2.63
O=C(Oc1ccc(N=C=S)cc1)c1ccccc1 | 4.9
CCOC(=O)c1ccccn1 | 0.87
O=C1C=C(N2CC2)C(=O)c2ccccc21 | 1.71
CCOC(=O)N(C)C | 0.89
Cc1cc(N)ccc1Br | 2.53
Nc1ccncc1 | 0.32
CCCCCCC1(c2ccncc2)CCC(=O)NC1=O (stereo not given) | 2.94
O=C(O)C1c2ccccc2Sc2ccccc21 | 2.57
OCC1OC(n2cnc3c(S)ncnc32)C(O)C1O (stereo not given) | -0.6
CNC1=CC(=O)C(NC)=CC1=O | 0.34
NC(=O)c1ccc(Br)cc1 | 1.76
CCCCCC[N+](=O)[O-] | 2.7

Structure (SMILES) | logP
FC(F)(F)c1cccc2cccnc12 | 2.5
CC(O)Cc1ccccc1 (stereo not given) | 1.97
CC1(C)S[C@@H]2[C@H](NC(=O)COc3ccccc3)C(=O)N2[C@H]1C(=O)O | 2.09
O=c1cncc[nH]1 | -1.49
CN(C)C(=O)c1ccccc1 | 0.62
NNc1ccc([N+](=O)[O-])cc1 | 1.41
N#Cc1c[nH]c(=O)[nH]c1=O | -0.93
CC(C)CCn1cnc([N+](=O)[O-])n1 | 1.34
CCI | 2
CC(=O)N[C@@H](CCC(N)=O)C(=O)N[C@@H](Cc1ccccc1)C(N)=O (Ac-Gln-Phe-NH2) | -1.14
NC(Cc1c[nH]c2cccc(F)c12)C(=O)O (stereo not given) | -1.07
CCOC(=O)C=Cc1ccccc1 | 2.99
CC(=O)c1ccc2cccccc1-2 | 2.87
CCCCCC1(c2ccncc2)CCC(=O)NC1=O (stereo not given) | 2.26
Nc1nc2c(ncn2[C@H]2C[C@H](O)[C@@H](CO)O2)c(=S)[nH]1 | -0.56
CCCOc1cccc(C=C(C(=O)OCC)C(=O)OCC)c1 | 4
CN(C(N)=O)c1ccccc1 | 0.42
Cc1cc[nH]c(=O)n1 | -1.45
Oc1cc(Cl)c(Cl)c(Cl)c1Cl | 4.21
Cn1nnnc1SCC1=C(C(=O)O)N2C(=O)C(NC(=O)CSCC#N)C2SC1 (stereo not given) | -0.62
Nc1nncs1 | -0.57
O=S(=O)(O)c1ccc2ccccc2c1 | 0.63

Reference: the OPERA property sets (Mansouri et al. 2018)
